From the NIST ThermoML archive (doi:10.1016/j.fluid.2005.07.010)
Numbers after ± are expanded uncertainties.

Conditions: Liquid; for mass density / viscosity: 298.15 K, 101.33 kPa; for Normal boiling temperature: Ebulliometric method (Recirculating still)

Structure (SMILES)	mass density [kg/m3]	viscosity [mPa·s]	Normal boiling temperature [°C]
CC(=O)O [acetic acid]	1043.6 ± 0.6	1.115 ± 0.035	117.80 ± 0.2
CCO [ethanol]	785.4 ± 0.6	1.082 ± 0.034	78.28 ± 0.2
CCOC(C)=O [ethyl acetate]	894.4 ± 0.4	0.426 ± 0.016	77.12 ± 0.2
